This passage reports Km results from PMC2892419 (Biochemistry, 2010).

The test system of test [1] is Sgx9236b. As to the kind of experiment: direct UV assay of deamination, […] nm. In kind it is biochemical, Unknown prokaryotic organism (Sargasso Sea metagenome). As to conditions: pH 8.5, 30 °C.
Test [2] has as its system Sgx9236b. As to the kind of experiment: direct UV assay of deamination, […] nm. In kind it is biochemical, Unknown prokaryotic organism (Sargasso Sea metagenome). As to conditions: pH 8.5, 30 °C. The source holds these as a separate data set.

A word on the Km: it is the concentration of substrate that gives half-maximal velocity. As for `Nc1nc2ncc(C(=O)O)nc2c(=O)[nH]1` [II, pterin-6-carboxylate], the Km in the test with Sgx9236b [1] was 90 ± 30 µM.
Turning to `Nc1nc2[nH]c(=O)cnc2c(=O)[nH]1` [I, isoxanthopterin], in the test on Sgx9236b [2], the Km amounted to 50 ± 10 µM.
